# Measurements published in patent US20260048022A1, “ENDOTHELIAL DAMAGE AND NANOPARTICLE TARGETING: COMPOSITIONS, PROCESSES, USES” (Nanoprobes, Inc., priority 2022, published 2026).
# Like-named read-outs stand apart in the source and are kept apart here.
# Tests used:
# tumors [1] = details: Pedley et al, 1996; cited from earlier work
# tumors [2] = assay: Tumor treatment, variation of fibrinogen, drug and VDA amounts; format: in vivo
# Protocol: One of the components, fibrinogen, was varied from 10 to 150 mg/kg.
# In a preferred embodiment, 60 mg PTX/kg and 350 mg fibrinogen/kg are formed into nanoparticles 110-180 nm or 110 to 350 nm in size. Another discovery process requiring extensive experimentation was to find the type of fibrinogen that worked well. […] Various forms and fractions were tested to find a preferable one for tumor targeting.
# [3] = Phase III trials; cited from earlier work
# [4] = tested on: advanced non-squamous non-small-cell lung cancer; details: Phase II, with carboplatin, paclitaxel, and bevacizumab; cited from earlier work
# [5] = Payload retention / incorporation in protein nanoparticles; format: physicochemical; details: PBS washing
# Protocol: (§1) 0.2 mg of acridine yellow G or 0.2 mg of propidium iodide were dissolved in DMSO by heating twice at 80° C. for 2 min. 15 mg albumin was dissolved in 0.4 mL of PBS. While sonicating the albumin solution in an ice bath, the acridine or propidium solutions were slowly over about 10-20 sec injected at the sonicator tip. Sonication was continued for another minute. Clear colored solutions were obtained. Both were filtered through a 0.45 μm filter, all passing through. However, if albumin was not used, the solution containing acridine all was retained by the filter, whereas the propidium solution passed through. Both were purified with 50 kD Amicon centrifugal filters with PBS washing.
# 20 mg of albumin was dissolved in 0.4 mL water and mixed with 0.5 mg of Dox making a clear colored solution. Under sonication and in an ice-water bath, 80 ul of 0.1 M NaOH was slowly injected near the sonicator tip. Next, 10 ul of 8% glutaraldehyde (in water) was added with an additional 5 minutes of sonication producing a clear solution. After 30 min, 30 ul of a 3 M solution of ethanolamine hydrochloride was added. After 30 min, the construct was purified on a 50 kDa centrifugal filter. […] After resuspension of the retentate in PBS the size of the nanoparticles was measured to be 117 nm by dynamic light scattering. […]
# DNA = assay: Nanoparticle targeting of DNA; format: binding; details: DNA binder incorporated into nanoparticles
# Protocol: as §1
# 20 mg of albumin was dissolved in 0.4 mL water and mixed with 0.5 mg of Dox making a clear colored solution. Under sonication and in an ice-water bath, 80 ul of 0.1 M NaOH was slowly injected near the sonicator tip. Next, 10 ul of 8% glutaraldehyde (in water) was added with an additional 5 minutes of sonication producing a clear solution. After 30 min, 30 ul of a 3 M solution of ethanolamine hydrochloride was added. After 30 min, the construct was purified on a 50 kDa centrifugal filter. […] After resuspension of the retentate in PBS the size of the nanoparticles was measured to be 117 nm by dynamic light scattering.
# [6] = free drug, literature, cited from earlier work
structure (smiles),measurement,setting,value
Cc1ccc2c(=O)c3cccc(CC(=O)O)c3oc2c1C [DMXAA],ineffective dose (current teaching),tumors [1],less than 20 mg/kg
same,useful dose (current teaching),tumors [1],27.5 mg/kg
same,dose close to optimal,tumors [2]; DMXAA as vascular disrupting agent with nanoparticles,~18 mg/kg
same,patient survival,[3],lack of patient gain in survival
same,dose leading to excessive toxicity,"mouse, in vivo",> 20 mg/kg
"COc1ccc(/C=C\c2cc(OC)c(OC)c(OC)c2)cc1OP(=O)(O)O.NC(CO)(CO)CO [CA4P, fosbretabulin tromethamine]",patient benefit,[4],little patient benefit
Cc1cc2cc3cc(C)c(N)cc3nc2cc1N [acridine yellow G],retention with albumin on 50 kD Amicon centrifugal filters (stable complex),[5],remained in the retentate
same,targeting of necroses / free DNA when included in a nanoparticle,DNA,found to target the nanoparticles to free DNA
"CC[N+](C)(CC)CCC[n+]1c(-c2ccccc2)c2cc(N)ccc2c2ccc(N)cc21 [propidium, propidium iodide]",retention with albumin on 50 kD Amicon centrifugal filters (stable complex),[5],came through in the filtrate
same,targeting of necroses / free DNA when included in a nanoparticle,DNA,failed
CC(=O)O[C@H]1C(=O)[C@@]2(C)[C@H]([C@H](OC(=O)c3ccccc3)[C@]3(O)C[C@H](OC(=O)[C@H](O)[C@@H](NC(=O)c4ccccc4)c4ccccc4)C(C)=C1C3(C)C)[C@]1(OC(C)=O)CO[C@@H]1C[C@@H]2O [paclitaxel],treatment result,tumors [2]; 60-90 mg PTX/kg in the nanoparticle,excellent results
same,tolerability,"mouse, in vivo, 90 mg/kg",well-tolerated
same,multiple of the maximum tolerated dose that can be safely administered,using the disclosed method,~4 times
same,maximum tolerated dose (reported / published),[6],10 mg/kg
same,maximum tolerated dose (reported / published),[6]; listed as PTX,25 mg/kg
